For the test, the system named is Interleukin-6 (IL-6). In words: Interleukin-6 (IL-6) assay: UV-stressed skin cells, IL-6 ELISA of media supernatant. The class given is cell-based. The settings on record: FIG. 2; active alone at 0.0001% by weight of the composition; skin cells (keratinocytes or fibroblasts), UV dose 61,500 Joules/m^2. On the procedure: Interleukin-6 (IL-6) Assay Interleukin-6 (IL-6) bioactivity in skin cells was measured. IL-6 is a cytokine and used as a biomarker for inflammation. Skin cells (keratinocytes or fibroblasts) were placed under UV stress to induce an IL-6 response in the presence of an active or blend of actives to determine the activity of that active or blend of actives in inhibiting an IL-6 response. Skin cells (keratinocytes or fibroblasts) were taken from culture, seeded in a 96-well plate at a density of 5000 cells per well in cell growth media with supplements and left to incubate for 24 hours at 37° C. Determination of cell number for the purpose of plating was performed in accordance with standard methods known in the art. After incubation, the cell growth media was replaced with 100 μl of PBS without calcium and magnesium and containing the relevant concentration of active(s) required. Controls include untreated irradiated and non-irradiated samples which require 100 μl pure PBS without calcium and magnesium or containing a maximum of 0.1%. Dimethyl sulfoxide (DMSO) was used where necessary to dissolve the active(s). Salicylic acid is the positive control for this assay. The cells were incubated with the actives for 30 minutes at 37° C. before being irradiated with a UV dose of 61,500 Joules/m^2. […]
For orientation: ELISA stands for enzyme-linked immunosorbent assay.

Molecules are shown by their SMILES.

Take `CCCCCCCCCCCCCC[C@@H](O)[C@@H](O)[C@@H](N)CO.Cl` [phytosphingosine hydrochloride]: the “inhibited IL-6 activity” value worked out at 58%.

The record behind these values is patent US11730686B2, “Cosmetic skincare compositions” (THE BOOTS COMPANY PLC, priority 2017, dated 2023).
